Laboratory results published in patent US6743568B2, “Cyanine dyes” (Kabushiki Kaisha Hayashibara Seibutsu Kagaku Kenkyujo, priority 2000, dated 2004).
Like-named read-outs stand apart in the source and are kept apart here.

How the values were obtained:
[1] = Decomposition point of cyanine dye by DTA/TGA; assay type: physicochemical; details: temperature at which specimen begins to lose weight on TGA; heating rate 10° C./min
Text: An adequate amount of any one of the cyanine dyes in Table 1 as a test specimen was placed in a vessel and subjected to conventional differential thermal analysis (hereinafter abbreviated as “DTA”) and thermogravimetric analysis (hereinafter abbreviated as “TGA”) using “MODEL TG/DTA 220”, a digital thermo analyzer commercialized by Seiko Instruments Inc., Tokyo, Japan, to determine their decomposition points, i.e., temperatures at which the cyanine dyes as test specimens begin to lose their weight on TGA. In parallel, conventional related compounds represented by Chemical Formulae 73 and 76 were analyzed similarly as above. […] In DTA and TGA, the environmental temperature was set to an increasing temperature mode at a rate of 10° C./min.

[2] = Solubility of cyanine dye in DAA at 20° C.; assay type: physicochemical; details: in diacetone alcohol (DAA) at 20° C.
Protocol: For the cyanine dyes in Table 1, they were measured in a conventional manner for solubility in […] at 20° C. In parallel, conventional related compounds represented by Chemical Formulae 73 to 76 were also measured for solubility in DAA in a similar way.

[3] = diacetone alcohol (DAA), 20 °C, organic solvent or mixture, read-out: Solubility

SMILES	Decomposition point (° C.) [1] [°C]	Solubility [2] [mg/mL]	Solubility [2, 3] [mg/mL]
CCCCN1/C(=C\C=C\C2=[N+](CCCC)c3ccc4ccccc4c3C2(C)C)C(C)(C)c2c1ccc1ccccc21 [Chemical Formula 35]	280.1	6.4	
CCCCN1C(=CC=CC2=[N+](C)c3ccc4ccccc4c3C2(C)C)C(C)(C)c2c1ccc1ccccc21 [Chemical Formula 14]	279.8	73	
CCCCN1C(=CC=CC2=[N+](C)c3ccc4ccccc4c3C2(C)C)C(C)(C)c2c1ccc1ccccc21 [Chemical Formula 13]	264.7	143	
CCCCN1C(=CC=CC2=[N+](CCCC)c3ccc4ccccc4c3C2(C)C)C(C)(C)c2c1ccc1ccccc21 [Chemical Formula 33]	284.2	61	
CCCCN1C(=CC=CC2=[N+](CCCC)c3ccc4ccccc4c3C2(C)C)C(C)(C)c2c1ccc1ccccc21 [Chemical Formula 76, reference compound]	266.1	17	
CCCCN1C(=CC=CC2=[N+](C)c3ccc4ccccc4c3C2(C)C)C(C)(C)c2c1ccc1ccccc21 [Chemical Formula 73, reference compound]	242.2	42	
CCCCN1C(=CC=CC2=[N+](CCC)c3ccc4ccccc4c3C2(C)C)C(C)(C)c2c1ccc1ccccc21 [Chemical Formula 75, reference compound]	269.0		19
CCCCN1C(=CC=CC2=[N+](CC)c3ccc4ccccc4c3C2(C)C)C(C)(C)c2c1ccc1ccccc21 [Chemical Formula 20]	281.8	140	
CCCN1C(=CC=CC2=[N+](CC)c3ccc4ccccc4c3C2(C)C)C(C)(C)c2c1ccc1ccccc21 [Chemical Formula 21]	301.9		2.8
CCCCN1C(=CC=CC2=[N+](CC)c3ccc4ccccc4c3C2(C)C)C(C)(C)c2c1ccc1ccccc21 [Chemical Formula 74, reference compound]	211.5	22	
CCCC[N+]1=C(C=CC=C2N(C)c3c(ccc4ccccc34)C2(C)C)C(C)(C)c2c1ccc1ccccc21 [Chemical Formula 50]	261.3		64
CN1C(=CC=CC2=[N+](C)c3ccc4ccccc4c3C2(C)C)C(C)(C)c2c1ccc1ccccc21 [Chemical Formula 16]	314.5		1.1
CCCCN1C(=CC=CC2=[N+](CC)c3ccc4ccccc4c3C2(C)C)C(C)(C)c2c1ccc1ccccc21 [Chemical Formula 19]	281.6	23	
CN1C(=CC=CC2=[N+](C)c3ccc4ccccc4c3C2(C)C)C(C)(C)c2ccc3ccccc3c21 [Chemical Formula 43]	304.7		2.7
